Experiment [1] relates to dextran sodium sulfate-induced colitis. In words: Dextran sodium sulfate-induced colitis in rats, prophylactic. Format: in vivo, rat. The following applies: SD rats, 5.5 w/v % DSS, oral 1 mg/kg and 3 mg/kg once a day. How it is done: Prophylactic effect of compound F on colitis was also studied in rats. Male SD rats, 7 weeks old, body weight around 210 g-240 g (Charles River) were purchased, acclimated for 1 week and used for the study. Except the normal group, the rats were allowed to freely drink a DSS (MP Biochemicals, M.W. 36,000-50,000, Lot No. 4556J) solution prepared to 5.5 w/v % for 8 days to induce colitis. Compound F at doses of 0.3, 1 and 3 mg/kg was orally administered once a day, daily, from one day before the start day of DSS drinking to one day before autopsy (day 7). To the control group was orally administered a solvent (1 vol % ethanol solution) at 5 mL/kg.
On day 8 from the start of DSS drinking, 1.25 w/v % Evans blue solution was administered at 0.2 mL/100 g from the tail vein. After 30 min, the rats were subjected to laparotomy under ether anesthesia and exsanguinated to death. Thereafter, the large intestine was dissected from just below the cecum to the anus, and the length was measured with a scale. […] The next day, the dry weight was measured, formamide (2 mL) was added, the dye was extracted at 50° C. overnight, and the level thereof was measured at 620 nm. A standard curve was prepared using an Evans blue standard solution, and the amount (mg) of Evans blue in 1 g of the colonic tissue was calculated to estimate degree of colonic tissue injury. […]

The test system is the same in experiment [2]. In words: Remission/relapse model of dextran sodium sulfate-induced colitis in mice, therapeutic. The following applies: compound F 1 mg/kg, SASP 100 mg/kg, oral once a day for 50 days. Format: in vivo, mouse. From the text:
Next, therapeutic effect of compound F on colitis was studied in a chronic model. Female BALB/c mice, 6 weeks old, body weight about 20 g (Japan SLC) were purchased, acclimated for 1 week and used for the study. The mice were divided into a colitis induction group and a normal group. The colitis induction group was allowed to freely drink a 2.6 w/v % DSS (MP Biochemicals, M.W. 36,000-50,000, Lot No. 4556J) solution to induce colitis. On day 8 when the stool score (defined in Example 23) of the colitis induction group reached about 4.5, the mice were subdivided into a control group, a compound F 1 mg/kg administration group and a salazosulfapyridine (SIGMA, Lot No. 085K1930, hereinafter to be abbreviated as SASP) 100 mg/kg administration group. Then the mice were allowed to freely drink distilled water instead of DSS solution for 9 days (remission period). After the grouping, the stool score was evaluated every 3-4 days. […]
Compound F at a dose of 1 mg/kg and SASP at a dose of 100 mg/kg were orally administered once a day, daily, for 50 days from the initial remission period (day 8 from the start of 2.6 w/v % DSS drinking) to the fifth remission period (day 57 from the start of 2.6 w/v % DSS drinking). […] The remission ratio (%) was calculated as a ratio of mice in remission in each group. […]

For experiment [3] the test system is unchanged. Put plainly: Dextran sodium sulfate-induced colitis model in mice (BALB/c), prophylactic. The following applies: 2.2 w/v % DSS. Format: in vivo, mouse. From the text: The prophylactic effect of compound F on ulcerative colitis was examined in dextran sodium sulfate-induced colitis model.
Female BALB/c mice (6 weeks old, Japan SLC) were purchased, acclimated for 1 week and used for the study. Except the normal group, the mice were allowed to freely drink a dextran sodium sulfate (to be abbreviated as DSS, MP Biochemicals, M.W. 36,000-50,000, Lot No. 3439J) solution prepared to 2.2 w/v % for 9 days to induce colitis. Compound F was orally administered at doses of 0.1, 0.3 and 1 mg/kg, once a day, daily, from the start day of DSS drinking (day 0) to one day before autopsy (day 9). To the control group was orally administered a solvent (1 vol % ethanol solution) at 10 mL/kg in the same manner.
Thus, to determine the level of diarrhea, the stool was graded into 6 levels; normal (score 0), spherical stool being not less than 50% (score 1), banana-shaped stool being less than 50% (score 2), banana-shaped stool being not less than 50% (score 3), muddy stool (score 4), watery stool (score 6) (stool consistency score). The fecal occult blood (including proctorrhagia) was graded using fecal occult blood slide 5 Shionogi II (Shionogi & Co., Ltd.) into 6 levels; negative (no change of the slide color from yellow, score 0), weakly positive (slightly blue green, score 1), positive (blue green, score 2), moderately positive (clear blue green, score 3), strongly positive (instantaneous color change to dark blue with color developer, score 4), and proctorrhagia (score 5). The sum of the stool consistency score and occult blood score was defined as the stool score. Eight to 10 animals were used for each group, and the results were expressed as average±standard deviation. On the day of autopsy, after laparotomy under ether anesthesia and blood collection, the mice were exsanguinated to death. Then the large intestines were dissected from just below the cecum to the anus and the length thereof was measured.

On to `Cc1cccc([C@@H](C)[C@H](O)/C=C/[C@@H]2[C@@H]3[C@H](C[C@H]2O)O/C(=C\CCCc2nnn[nH]2)C3(F)F)c1` [Compound F, 4-[(Z)-(1S,5R,6R,7R)-6-[(1E,3R,4R)-3-hydroxy-4-(m-tolyl)-1-pentenyl]-7-hydroxy-2-oxa-4,4-difluoro-bicyclo[3.3.0]octan-3-ylidene]-1-(tetrazol-5-yl)butane], for which, in experiment [1], the “Effect on stool score, colonic tissue injury and shortening of the large intestine” value is on record as “suppressive tendency or significant suppressive effect”. The “Effect on stool score in remission and relapse periods” value in experiment [2] is “decreased the stool score early in the remission period, and suppressed an increase in the score in the relapse period”. Further, the “Suppression of the increase in the stool score” value in experiment [3] (oral 0.1 mg/kg once a day) is “suppressive tendency”; in experiment [3] (oral 0.3 and 1 mg/kg once a day), “significant”. In addition, the “Effect on shortening of the large intestine” value in experiment [3] (oral 0.1, 0.3 and 1 mg/kg once a day) is recorded as “dose-dependent suppressive effect”.

For the origin of these results see patent publication US9034906B2, “EP4 agonist” (Asahi Glass Company, Limited, priority 2008, dated 2015).
